Test results taken from US10538555B2, “Macrocyclic inhibitors of the PD-1/PD-L1 and CD80(B7-1)/PD-L1 protein/protein interactions” (BRISTOL-MYERS SQUIBB COMPANY, priority 2014, dated 2020).
Read-outs that look alike come from different tables or passages of the source. Where a SMILES comes first, the peptide text is derived from it. Bridges are numbered along the chain shown (N, C = ends). [ ]: non-standard residue; d: D form. Phe(3,4,5-F3) = N[C@@H](Cc1cc(F)c(F)c(F)c1)C(=O)O; d(cisHyp) = O=C(O)[C@H]1C[C@@H](O)CN1; NMeF = CN[C@@H](Cc1ccccc1)C(=O)O; NMeNle = CCCC[C@H](NC)C(=O)O; Orn = NCCC[C@H](N)C(=O)O; Dab = NCC[C@H](N)C(=O)O; Dap = NC[C@H](N)C(=O)O

Target: T1, Human PD-L1/PD-1 (Homo sapiens, UniProt Q9NZQ7)
T1 construct: TVMV protease cleavage site (C); made in house; host or cells: HEK293T cells
T1 sequence (Q9NZQ7 with tags, fused parts or gaps): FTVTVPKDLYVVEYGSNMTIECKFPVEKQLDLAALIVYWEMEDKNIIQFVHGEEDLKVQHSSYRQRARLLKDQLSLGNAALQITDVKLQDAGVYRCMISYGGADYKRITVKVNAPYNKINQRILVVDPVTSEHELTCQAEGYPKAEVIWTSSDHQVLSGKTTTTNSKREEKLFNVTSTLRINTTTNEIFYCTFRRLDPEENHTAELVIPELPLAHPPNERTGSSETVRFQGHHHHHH
Assay: HTRF Human PD-L1/PD-1 binding assay (PD-1-Ig/PD-L1-His)
Settings: PD-L1-His 10 nM, PD-1-Ig 20 nM
Method in brief: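 Inhibitors were preincubated 15 min with human PD-L1(18-239)-His (10 nM final), then PD-1(25-167)-Ig (20 nM final) was added for 15 min in dPBS/0.1% BSA/0.05% Tween-20. Eu-cryptate anti-Ig (1 nM) and APC anti-His (20 nM) were added; 665/620 nm ratio read after 30 min.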

[1] = class symbol, read-out: HTRF Human PD-L1/PD-1 Binding Assay IC50 Range

Work on CCCC[C@H]1C(=O)N2C[C@H](O)C[C@@H]2C(=O)N[C@@H](CC(=O)O)C(=O)N[C@@H](C(C)C)C(=O)N(C)[C@@H](Cc2ccccc2)C(=O)N[C@@H](CC(=O)O)C(=O)N2C[C@H](O)C[C@@H]2C(=O)N[C@@H](Cc2c[nH]c3ccccc23)C(=O)N[C@@H](Cc2ccc(O)cc2)C(=O)N[C@@H](CCC(N)=O)C(=O)N[C@H](C(=O)NCC(N)=O)CSCC(=O)N[C@@H](Cc2cc(F)c(F)c(F)c2)C(=O)N(C)[C@@H](Cc2ccccc2)C(=O)N1C [Example 9351] ({CH2CO}-[Phe(3,4,5-F3)][NMeF][NMeNle][d(cisHyp)]DV[NMeF]D[d(cisHyp)]WYQCG-NH2; thioether N-13) yielded an IC50 [1] of 10 to 99.9 nM.
CCCC[C@H]1C(=O)N2C[C@H](O)C[C@@H]2C(=O)N[C@@H](CC(=O)O)C(=O)N[C@@H](C(C)C)C(=O)N(C)[C@@H](Cc2ccccc2)C(=O)N[C@@H](CC(=O)O)C(=O)N2C[C@H](O)C[C@@H]2C(=O)N[C@@H](Cc2c[nH]c3ccccc23)C(=O)N[C@@H](Cc2ccc(O)cc2)C(=O)N[C@@H](CC(N)=O)C(=O)N[C@H](C(=O)NCC(N)=O)CSCC(=O)N[C@@H](Cc2cc(F)c(F)c(F)c2)C(=O)N(C)[C@@H](Cc2ccccc2)C(=O)N1C [Example 9352] ({CH2CO}-[Phe(3,4,5-F3)][NMeF][NMeNle][d(cisHyp)]DV[NMeF]D[d(cisHyp)]WYNCG-NH2; thioether N-13) gave an IC50 [1] of 1 to 9.9 nM.
Compound CCCC[C@H]1C(=O)N2C[C@H](O)C[C@@H]2C(=O)N[C@@H](CC(=O)O)C(=O)N[C@@H](C(C)C)C(=O)N(C)[C@@H](Cc2ccccc2)C(=O)N[C@@H](CCC(N)=O)C(=O)N2C[C@H](O)C[C@@H]2C(=O)N[C@@H](Cc2c[nH]c3ccccc23)C(=O)N[C@@H](Cc2ccc(O)cc2)C(=O)N[C@@H](CCCCN)C(=O)N[C@H](C(=O)NCC(N)=O)CSCC(=O)N[C@@H](Cc2cc(F)c(F)c(F)c2)C(=O)N(C)[C@@H](Cc2ccccc2)C(=O)N1C [Example 9353] ({CH2CO}-[Phe(3,4,5-F3)][NMeF][NMeNle][d(cisHyp)]DV[NMeF]Q[d(cisHyp)]WYKCG-NH2; thioether N-13) has an IC50 [1] of 1 to 9.9 nM.
With CCCC[C@H]1C(=O)N2C[C@H](O)C[C@@H]2C(=O)N[C@@H](CC(=O)O)C(=O)N[C@@H](C(C)C)C(=O)N(C)[C@@H](Cc2ccccc2)C(=O)N[C@@H](CCC(N)=O)C(=O)N2C[C@H](O)C[C@@H]2C(=O)N[C@@H](Cc2c[nH]c3ccccc23)C(=O)N[C@@H](Cc2ccc(O)cc2)C(=O)N[C@@H](CCCN)C(=O)N[C@H](C(=O)NCC(N)=O)CSCC(=O)N[C@@H](Cc2cc(F)c(F)c(F)c2)C(=O)N(C)[C@@H](Cc2ccccc2)C(=O)N1C [Example 9354] ({CH2CO}-[Phe(3,4,5-F3)][NMeF][NMeNle][d(cisHyp)]DV[NMeF]Q[d(cisHyp)]WY[Orn]CG-NH2; thioether N-13) the IC50 [1] was 1 to 9.9 nM.
In the case of CCCC[C@H]1C(=O)N2C[C@H](O)C[C@@H]2C(=O)N[C@@H](CC(=O)O)C(=O)N[C@@H](C(C)C)C(=O)N(C)[C@@H](Cc2ccccc2)C(=O)N[C@@H](CCC(N)=O)C(=O)N2C[C@H](O)C[C@@H]2C(=O)N[C@@H](Cc2c[nH]c3ccccc23)C(=O)N[C@@H](Cc2ccc(O)cc2)C(=O)N[C@@H](CCN)C(=O)N[C@H](C(=O)NCC(N)=O)CSCC(=O)N[C@@H](Cc2cc(F)c(F)c(F)c2)C(=O)N(C)[C@@H](Cc2ccccc2)C(=O)N1C [Example 9355] ({CH2CO}-[Phe(3,4,5-F3)][NMeF][NMeNle][d(cisHyp)]DV[NMeF]Q[d(cisHyp)]WY[Dab]CG-NH2; thioether N-13), the IC50 [1] is reported as 1 to 9.9 nM.
For CCCC[C@H]1C(=O)N2C[C@H](O)C[C@@H]2C(=O)N[C@@H](CC(=O)O)C(=O)N[C@@H](C(C)C)C(=O)N(C)[C@@H](Cc2ccccc2)C(=O)N[C@@H](CCC(N)=O)C(=O)N2C[C@H](O)C[C@@H]2C(=O)N[C@@H](Cc2c[nH]c3ccccc23)C(=O)N[C@@H](Cc2ccc(O)cc2)C(=O)N[C@@H](CN)C(=O)N[C@H](C(=O)NCC(N)=O)CSCC(=O)N[C@@H](Cc2cc(F)c(F)c(F)c2)C(=O)N(C)[C@@H](Cc2ccccc2)C(=O)N1C [Example 9356] ({CH2CO}-[Phe(3,4,5-F3)][NMeF][NMeNle][d(cisHyp)]DV[NMeF]Q[d(cisHyp)]WY[Dap]CG-NH2; thioether N-13), the IC50 (read-out: HTRF Human PD-L1/PD-1 Binding Assay IC50) was 151 nM.
CCCC[C@H]1C(=O)N2C[C@H](O)C[C@@H]2C(=O)N[C@@H](CC(=O)O)C(=O)N[C@@H](C(C)C)C(=O)N(C)[C@@H](Cc2ccccc2)C(=O)N[C@@H](CCC(N)=O)C(=O)N2C[C@H](O)C[C@@H]2C(=O)N[C@@H](Cc2c[nH]c3ccccc23)C(=O)N[C@@H](Cc2ccc(O)cc2)C(=O)N[C@@H](CCC(=O)O)C(=O)N[C@H](C(=O)NCC(N)=O)CSCC(=O)N[C@@H](Cc2cc(F)c(F)c(F)c2)C(=O)N(C)[C@@H](Cc2ccccc2)C(=O)N1C [Example 9357] ({CH2CO}-[Phe(3,4,5-F3)][NMeF][NMeNle][d(cisHyp)]DV[NMeF]Q[d(cisHyp)]WYECG-NH2; thioether N-13) gave an IC50 [1] of 10 to 99.9 nM.
CCCC[C@H]1C(=O)N2C[C@H](O)C[C@@H]2C(=O)N[C@@H](CC(=O)O)C(=O)N[C@@H](C(C)C)C(=O)N(C)[C@@H](Cc2ccccc2)C(=O)N[C@@H](CCC(N)=O)C(=O)N2C[C@H](O)C[C@@H]2C(=O)N[C@@H](Cc2c[nH]c3ccccc23)C(=O)N[C@@H](Cc2ccc(O)cc2)C(=O)N[C@@H](CC(=O)O)C(=O)N[C@H](C(=O)NCC(N)=O)CSCC(=O)N[C@@H](Cc2cc(F)c(F)c(F)c2)C(=O)N(C)[C@@H](Cc2ccccc2)C(=O)N1C [Example 9358] ({CH2CO}-[Phe(3,4,5-F3)][NMeF][NMeNle][d(cisHyp)]DV[NMeF]Q[d(cisHyp)]WYDCG-NH2; thioether N-13) showed an IC50 [1] of 10 to 99.9 nM.
CCCC[C@H]1C(=O)N2C[C@H](O)C[C@@H]2C(=O)N[C@@H](CC(=O)O)C(=O)N[C@@H](C(C)C)C(=O)N(C)[C@@H](Cc2ccccc2)C(=O)N[C@@H](CCC(N)=O)C(=O)N2C[C@H](O)C[C@@H]2C(=O)N[C@@H](Cc2c[nH]c3ccccc23)C(=O)N[C@@H](Cc2ccc(O)cc2)C(=O)N[C@@H](CC(N)=O)C(=O)N[C@H](C(=O)NCC(N)=O)CSCC(=O)N[C@@H](Cc2cc(F)c(F)c(F)c2)C(=O)N(C)[C@@H](Cc2ccccc2)C(=O)N1C [Example 9360] ({CH2CO}-[Phe(3,4,5-F3)][NMeF][NMeNle][d(cisHyp)]DV[NMeF]Q[d(cisHyp)]WYNCG-NH2; thioether N-13) was tested, and the IC50 [1] was 1 to 9.9 nM.
In the case of CCCC[C@H]1C(=O)N2C[C@H](O)C[C@@H]2C(=O)N[C@@H](CC(=O)O)C(=O)N[C@@H](C(C)C)C(=O)N(C)[C@@H](Cc2ccccc2)C(=O)N[C@@H](CC(N)=O)C(=O)N2C[C@H](O)C[C@@H]2C(=O)N[C@@H](Cc2c[nH]c3ccccc23)C(=O)N[C@@H](Cc2ccc(O)cc2)C(=O)N[C@@H](CC(C)C)C(=O)N[C@H](C(=O)NCC(N)=O)CSCC(=O)N[C@@H](Cc2cc(F)c(F)c(F)c2)C(=O)N(C)[C@@H](Cc2ccccc2)C(=O)N1C [Example 9361] ({CH2CO}-[Phe(3,4,5-F3)][NMeF][NMeNle][d(cisHyp)]DV[NMeF]N[d(cisHyp)]WYLCG-NH2; thioether N-13), the IC50 [1] is reported as 1 to 9.9 nM.
Compound CCCC[C@H]1C(=O)N2C[C@H](O)C[C@@H]2C(=O)N[C@@H](CC(=O)O)C(=O)N[C@@H](C(C)C)C(=O)N(C)[C@@H](Cc2ccccc2)C(=O)N[C@@H](CC(N)=O)C(=O)N2C[C@H](O)C[C@@H]2C(=O)N[C@@H](Cc2c[nH]c3ccccc23)C(=O)N[C@@H](Cc2ccc(O)cc2)C(=O)N[C@@H](CCCCN)C(=O)N[C@H](C(=O)NCC(N)=O)CSCC(=O)N[C@@H](Cc2cc(F)c(F)c(F)c2)C(=O)N(C)[C@@H](Cc2ccccc2)C(=O)N1C [Example 9362] ({CH2CO}-[Phe(3,4,5-F3)][NMeF][NMeNle][d(cisHyp)]DV[NMeF]N[d(cisHyp)]WYKCG-NH2; thioether N-13) has an IC50 [1] of 1 to 9.9 nM.
With CCCC[C@H]1C(=O)N2C[C@H](O)C[C@@H]2C(=O)N[C@@H](CC(=O)O)C(=O)N[C@@H](C(C)C)C(=O)N(C)[C@@H](Cc2ccccc2)C(=O)N[C@@H](CC(N)=O)C(=O)N2C[C@H](O)C[C@@H]2C(=O)N[C@@H](Cc2c[nH]c3ccccc23)C(=O)N[C@@H](Cc2ccc(O)cc2)C(=O)N[C@@H](CCCN)C(=O)N[C@H](C(=O)NCC(N)=O)CSCC(=O)N[C@@H](Cc2cc(F)c(F)c(F)c2)C(=O)N(C)[C@@H](Cc2ccccc2)C(=O)N1C [Example 9363] ({CH2CO}-[Phe(3,4,5-F3)][NMeF][NMeNle][d(cisHyp)]DV[NMeF]N[d(cisHyp)]WY[Orn]CG-NH2; thioether N-13) the IC50 [1] was 1 to 9.9 nM.
CCCC[C@H]1C(=O)N2C[C@H](O)C[C@@H]2C(=O)N[C@@H](CC(=O)O)C(=O)N[C@@H](C(C)C)C(=O)N(C)[C@@H](Cc2ccccc2)C(=O)N[C@@H](CC(N)=O)C(=O)N2C[C@H](O)C[C@@H]2C(=O)N[C@@H](Cc2c[nH]c3ccccc23)C(=O)N[C@@H](Cc2ccc(O)cc2)C(=O)N[C@@H](CCN)C(=O)N[C@H](C(=O)NCC(N)=O)CSCC(=O)N[C@@H](Cc2cc(F)c(F)c(F)c2)C(=O)N(C)[C@@H](Cc2ccccc2)C(=O)N1C [Example 9364] ({CH2CO}-[Phe(3,4,5-F3)][NMeF][NMeNle][d(cisHyp)]DV[NMeF]N[d(cisHyp)]WY[Dab]CG-NH2; thioether N-13) showed an IC50 [1] of 10 to 99.9 nM.
In the case of CCCC[C@H]1C(=O)N2C[C@H](O)C[C@@H]2C(=O)N[C@@H](CC(=O)O)C(=O)N[C@@H](C(C)C)C(=O)N(C)[C@@H](Cc2ccccc2)C(=O)N[C@@H](CC(N)=O)C(=O)N2C[C@H](O)C[C@@H]2C(=O)N[C@@H](Cc2c[nH]c3ccccc23)C(=O)N[C@@H](Cc2ccc(O)cc2)C(=O)N[C@@H](CN)C(=O)N[C@H](C(=O)NCC(N)=O)CSCC(=O)N[C@@H](Cc2cc(F)c(F)c(F)c2)C(=O)N(C)[C@@H](Cc2ccccc2)C(=O)N1C [Example 9365] ({CH2CO}-[Phe(3,4,5-F3)][NMeF][NMeNle][d(cisHyp)]DV[NMeF]N[d(cisHyp)]WY[Dap]CG-NH2; thioether N-13), the IC50 [1] is reported as 10 to 99.9 nM.
